Columns and labels:
[1] = test system: heartshape false pickerelweed (MOOVA); assay: Weed control effect test on paddy fields; type: in vivo, Monochoria vaginalis; details: applied onto water surface, 25th day from treatment
Source text: (§1) A plastic pot of 1/20000 are area was each filled with a paddy field soil which was manured and shuffled followed by sowing of the respective seeds of early watergrass (ECHOR), heartshape false pickerelweed (MOOVA), rock's bulrush (SCIJO) and marsh dayflower (ANEKE) and burying of tuberous roots of tidalmarsh flatsedge (CYPSE) followed by pooling of water in a water depth of 1 cm. And, paddy rice plants (Or) at the two-leaves stage were transplanted to the same pot and grown in a greenhouse. Thereafter, on the day when the early watergrass had reached its 2.5 leaves stage, pooling of water was undertaken in order to make the water depth to 3 cm and agents each prepared by dilution of a specified amount of the wettable powder prepared in the same manner as in Example 1 and 2 with water was applied onto the water surface, respectively. Then, growing was continued keeping the pooling water depth of 3 cm to record the weed control effect and the extent of phytotoxicity on the 25th day from the treatment as indexes according to the criteria given in Table 1. The dosages are given in terms of the amount of the active ingredients per 10 ares area.

paddy rice plants (Or) = assay: Weed control effect test on paddy fields: phytotoxicity to paddy rice; type: in vivo; details: applied onto water surface, 25th day from treatment
Source text: as §1

corn (ZEAMX) = assay: Weed control effect test by stems-and-leaves treatment: phytotoxicity to corn; type: in vivo; details: 30th day from treatment
Procedure: A plastic pot of 1/2000 are area was each filled with a dry-field soil where the respective seeds of corn (ZEAMX), pitted morningglory (IPOLA), velvet leaf (ABUTH) and lamb's-quarters (CHEAL) were sowed and tuberous roots of yellow nutsedge (CYPES) were buried followed by pooling of water from the bottom part of the pot. These seeds and tuberous roots were grown in a greenhouse. […] Thereafter, growing was continued in the glasshouse to record the weed control effect and the extent of phytotoxicity on the 30th day from the treatment as indexes according to the criteria given in Table 1. The dosages are given in terms of the amount of the active ingredients per hectare (ha).

marsh dayflower (ANEKE) = assay: Weed control effect test on paddy fields; type: in vivo; details: applied onto water surface, 25th day from treatment
Source text: as §1

rock's bulrush (SCIJO) = assay: Weed control effect test on paddy fields; type: in vivo, Scirpus juncoides; details: applied onto water surface, 25th day from treatment
Source text: as §1

[2] = test system: tidalmarsh flatsedge (CYPSE); assay: Weed control effect test on paddy fields; type: in vivo, Cyperus serotinus; details: applied onto water surface, 25th day from treatment
Source text: as §1

early watergrass (ECHOR) = assay: Weed control effect test on paddy fields; type: in vivo, Echinochloa oryzicola; details: applied onto water surface, 25th day from treatment
Source text: as §1

velvet leaf (ABUTH) = assay: Weed control effect test by stems-and-leaves treatment; type: in vivo; details: 30th day from treatment
Procedure: (§2) A plastic pot of 1/2000 are area was each filled with a dry-field soil where the respective seeds of corn (ZEAMX), pitted morningglory (IPOLA), velvet leaf (ABUTH) and lamb's-quarters (CHEAL) were sowed and tuberous roots of yellow nutsedge (CYPES) were buried followed by pooling of water from the bottom part of the pot. These seeds and tuberous roots were grown in a greenhouse. On the day when the pitted morningglory had reached its 4 leaves stage, a stems-and-leaves treatment was undertaken on the whole plant bodies with agents each prepared by dilution of a specified amount of the water-dispersible granules prepared in the same manner as in Example 3, 4 and 5 with water, respectively. Thereafter, growing was continued in the glasshouse to record the weed control effect and the extent of phytotoxicity on the 30th day from the treatment as indexes according to the criteria given in Table 1. The dosages are given in terms of the amount of the active ingredients per hectare (ha).

lamb's-quarters (CHEAL) = assay: as above; type: in vivo; details: 30th day from treatment
Procedure: as §2

yellow nutsedge (CYPES) = assay: as above; type: in vivo; details: 30th day from treatment
Procedure: as §2

[3] = test system: pitted morningglory (IPOLA); assay: as above; type: in vivo; details: 30th day from treatment
Procedure: as §2

With `COCc1cccc(C(O)c2nc(OC)cc(OC)n2)c1NS(=O)(=O)C(F)F` (stereo not shown) [Compound A-1, 2-[(4,6-dimethoxypyrimidin-2-yl)hydroxymethyl]-6-methoxymethyl-N-difluoromethanesulfonylanilide] the “weed control effect index, MOOVA” value ([1]; 3 g a.i./10a) was 7 (not less than 65% but less than 75% growth inhibition), the “extent of phytotoxicity index, OR” value (paddy rice plants (Or); 3 g a.i./10a) was 0 (less than 5% growth inhibition) and the “extent of phytotoxicity index, ZEAMX” value (corn (ZEAMX); 10 g a.i./ha) was 0 (less than 5% growth inhibition). For the same compound, the “weed control effect index, ANEKE” value (marsh dayflower (ANEKE); 3 g a.i./10a) was 2 (not less than 15% but less than 25% growth inhibition), the “weed control effect index, SCIJO” value (rock's bulrush (SCIJO); 3 g a.i./10a) was 8 (not less than 75% but less than 85% growth inhibition) and the “weed control effect index, CYPSE” value ([2]; 3 g a.i./10a) was 8 (not less than 75% but less than 85% growth inhibition). For the same compound, the “weed control effect index, ECHOR” value (early watergrass (ECHOR); 3 g a.i./10a) was 7 (not less than 65% but less than 75% growth inhibition), the “weed control effect index, ABUTH” value (velvet leaf (ABUTH); 10 g a.i./ha) was 5 (not less than 45% but less than 55% growth inhibition) and the “weed control effect index, CHEAL” value (lamb's-quarters (CHEAL); 10 g a.i./ha) was 1 (not less than 5% but less than 15% growth inhibition). The “weed control effect index, CYPES” value (yellow nutsedge (CYPES); 10 g a.i./ha) was 7 (not less than 65% but less than 75% growth inhibition) and the “weed control effect index, IPOLA” value ([3]; 10 g a.i./ha) was 6 (not less than 55% but less than 65% growth inhibition).

For `CCCc1ccc2nc(Cl)c(S(=O)(=O)NC(=O)Nc3nc(OC)cc(OC)n3)n2n1` [TH-547, 1-(2-chloro-6-propylimidazo[1,2-b]pyridazin-3-ylsulfonyl)-3-(4,6-dimethoxypyrimidin-2-yl)urea], the “weed control effect index, MOOVA” value ([1]; 7 g a.i./10a) was 7 (not less than 65% but less than 75% growth inhibition), the “extent of phytotoxicity index, OR” value (paddy rice plants (Or); 7 g a.i./10a) was 0 (less than 5% growth inhibition) and the “weed control effect index, ANEKE” value (marsh dayflower (ANEKE); 7 g a.i./10a) was 4 (not less than 35% but less than 45% growth inhibition). The “weed control effect index, SCIJO” value (rock's bulrush (SCIJO); 7 g a.i./10a) was 6 (not less than 55% but less than 65% growth inhibition), the “weed control effect index, CYPSE” value ([2]; 7 g a.i./10a) was 6 (not less than 55% but less than 65% growth inhibition) and the “weed control effect index, ECHOR” value (early watergrass (ECHOR); 7 g a.i./10a) was 7 (not less than 65% but less than 75% growth inhibition).

In the case of `CCNc1nc(Cl)nc(NC(C)C)n1` [atrazine], the “extent of phytotoxicity index, ZEAMX” value (corn (ZEAMX); 1000 g a.i./ha) is reported as 0 (less than 5% growth inhibition), the “weed control effect index, ABUTH” value (velvet leaf (ABUTH); 1000 g a.i./ha) is reported as 3 (not less than 25% but less than 35% growth inhibition) and the “weed control effect index, CHEAL” value (lamb's-quarters (CHEAL); 1000 g a.i./ha) is reported as 8 (not less than 75% but less than 85% growth inhibition). The “weed control effect index, CYPES” value (yellow nutsedge (CYPES); 1000 g a.i./ha) was 3 (not less than 25% but less than 35% growth inhibition) and the “weed control effect index, IPOLA” value ([3]; 1000 g a.i./ha) was 3 (not less than 25% but less than 35% growth inhibition).

For `COC(=O)CSc1cc(/N=c2\sc(=O)n3n2CCCC3)c(F)cc1Cl` [fluthiacet-methyl], the “extent of phytotoxicity index, ZEAMX” value (corn (ZEAMX); 5 g a.i./ha) was 0 (less than 5% growth inhibition), the “weed control effect index, ABUTH” value (velvet leaf (ABUTH); 5 g a.i./ha) was 9 (not less than 85% but less than 95% growth inhibition) and the “weed control effect index, CHEAL” value (lamb's-quarters (CHEAL); 5 g a.i./ha) was 8 (not less than 75% but less than 85% growth inhibition). For the same compound, the “weed control effect index, CYPES” value (yellow nutsedge (CYPES); 5 g a.i./ha) was 2 (not less than 15% but less than 25% growth inhibition) and the “weed control effect index, IPOLA” value ([3]; 5 g a.i./ha) was 3 (not less than 25% but less than 35% growth inhibition).

With `CCC1(CC2(c3cccc(Cl)c3)CO2)C(=O)c2ccccc2C1=O` (stereo not shown) [indanofan] the “weed control effect index, MOOVA” value ([1]; 15 g a.i./10a) was 5 (not less than 45% but less than 55% growth inhibition), the “weed control effect index, ANEKE” value (marsh dayflower (ANEKE); 15 g a.i./10a) was 5 (not less than 45% but less than 55% growth inhibition) and the “weed control effect index, SCIJO” value (rock's bulrush (SCIJO); 15 g a.i./10a) was 3 (not less than 25% but less than 35% growth inhibition). The “weed control effect index, CYPSE” value ([2]; 15 g a.i./10a) was 1 (not less than 5% but less than 15% growth inhibition) and the “weed control effect index, ECHOR” value (early watergrass (ECHOR); 15 g a.i./10a) was 6 (not less than 55% but less than 65% growth inhibition).

`COc1cc(OC)nc(NC(=O)NS(=O)(=O)c2ncccc2C(=O)N(C)C)n1` [nicosulfuron] was tested, and the “extent of phytotoxicity index, ZEAMX” value (corn (ZEAMX); 35 g a.i./ha) was 0 (less than 5% growth inhibition), the “weed control effect index, ABUTH” value (velvet leaf (ABUTH); 35 g a.i./ha) was 2 (not less than 15% but less than 25% growth inhibition) and the “weed control effect index, CHEAL” value (lamb's-quarters (CHEAL); 35 g a.i./ha) was 8 (not less than 75% but less than 85% growth inhibition). For the same compound, the “weed control effect index, CYPES” value (yellow nutsedge (CYPES); 35 g a.i./ha) was 4 (not less than 35% but less than 45% growth inhibition) and the “weed control effect index, IPOLA” value ([3]; 35 g a.i./ha) was 3 (not less than 25% but less than 35% growth inhibition).
